Source: patent publication EP1433789A1, “Pyrrolopyrazines and their use as selective apoptosis inducers” (Aponetics AG, priority 2002, dated 2004)

Experiments:
Format in all cases: cell-based, human
KB = assay: Hoechst 33342 nuclear staining (Table 3); set-up: key: 0 relating to no activity; 1 relating to weak activity comprising less than 50% of the cells; score 2 relating to strong activity comprising more than 50% of the cells
Outline: (§1)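 Adherent cells (3-5×10^3, pre-spread 24 h) or suspension cells (8-10×10^3) treated with compounds at 10, 3, 1 and 0.3 µM for 24 or 48 h, then Hoechst 33342 stained for 30 min. Apoptotic nuclear morphology scored by fluorescence microscopy: 0 none, 1 weak (<50% cells), 2 strong (>50% cells).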

K562 = assay: Hoechst 33342 nuclear staining (Table 3); set-up: key: 0 relating to no activity; 1 relating to weak activity comprising less than 50% of the cells; score 2 relating to strong activity comprising more than 50% of the cells
Outline: as §1

Jurkat = assay: PI staining for cell cycle distribution; set-up: key: 0 indicates no occurrence at all; 1 for weak; 2 for strong occurrence; conditions: Jurkat 3 uM, 24 h
Protocol: (§2) 1 - 2*10^5 cells are seeded into 24 well tissue culture plates and incubated for 24 h prior to compound addition. Compounds are added for 24 h in a final concentration of 3 µM or 10 µM. Adherent cells are harvested by trypsinization. The cell suspensions are fixed by adding 2 parts ice cold ethanol 100% while vortexing. Then the samples are stored for > 2 h at-20°C. Subsequently the cells are washed with PBS once and resuspended in 250 µl PBS containing 50 µg/ml PI (Calbiochem # 537059), then the samples are incubated at 37°C for 30 minutes and subsequently analyzed on a FACSCalibur™ monitoring linear PI fluorescence activity on FL2.. The readout allows the detection of a possible direct or indirect influence of the tested compounds on the cell cycle. The following events can occur: a) Generation of a subG1 peak indicative for DNA fragmentation, b) increase of the cell population arrested in G2M phase. Both events are scored by 1 for weak and 2 for strong occurrence. 0 indicates no occurrence at all. […]

HeLa = assay: PI staining for cell cycle distribution; set-up: key: 0 indicates no occurrence at all; 1 for weak; 2 for strong occurrence; conditions: HeLa 10 µM, 24 h
Protocol: as §2

For `COc1cc2c(cc1OC)-c1c(Cl)c3nc4ccccc4nc3n1C(C)C2` (stereo not shown) [compound 12], the “Hoechst 33342 nuclear staining” value (KB; 24h, conc 0.3 (µM)) was 0, the “Hoechst 33342 nuclear staining” value (KB; 24h, conc 1 (µM)) was 0 and the “Hoechst 33342 nuclear staining” value (KB; 24h, conc 3 (µM)) was 0. For the same compound, the “Hoechst 33342 nuclear staining” value (KB; 24h, conc 10 (µM)) was 2 (score 2 relating to strong activity comprising more than 50% of the cells), the “Hoechst 33342 nuclear staining” value (KB; 48h, conc 0.3 (µM)) was 0 and the “Hoechst 33342 nuclear staining” value (KB; 48h, conc 1 (µM)) was 0. The “Hoechst 33342 nuclear staining” value (KB; 48h, conc 3 (µM)) was 2 (score 2 relating to strong activity comprising more than 50% of the cells), the “Hoechst 33342 nuclear staining” value (KB; 48h, conc 10 (µM)) was 2 (score 2 relating to strong activity comprising more than 50% of the cells) and the “Hoechst 33342 nuclear staining” value (K562; K562, 24h, conc 0.3 (µM)) was 0. The “Hoechst 33342 nuclear staining” value (K562; K562, 24h, conc 1 (µM)) was 0, the “Hoechst 33342 nuclear staining” value (K562; K562, 24h, conc 3 (µM)) was 0 and the “Hoechst 33342 nuclear staining” value (K562; K562, 24h, conc 10 (µM)) was 2 (score 2 relating to strong activity comprising more than 50% of the cells). For the same compound, the “Hoechst 33342 nuclear staining” value (K562; K562, 48h, conc 0.3 (µM)) was 0, the “Hoechst 33342 nuclear staining” value (K562; K562, 48h, conc 1 (µM)) was 1 (1 relating to weak activity comprising less than 50% of the cells) and the “Hoechst 33342 nuclear staining” value (K562; K562, 48h, conc 3 (µM)) was 2 (score 2 relating to strong activity comprising more than 50% of the cells). For the same compound, the “Hoechst 33342 nuclear staining” value (K562; K562, 48h, conc 10 (µM)) was 2 (score 2 relating to strong activity comprising more than 50% of the cells), the “G2M (increase of the cell population arrested in G2M phase)” value (Jurkat) was 0 and the “subG1 (generation of a subG1 peak indicative for DNA fragmentation)” value (“subG1” for short) (Jurkat) was 0. For the same compound, the “G2M (increase of the cell population arrested in G2M phase)” value (HeLa) was 0 and the “subG1” value (HeLa) was 0.

For `CCC1Cc2cc(OC)c(OC)cc2-c2cc3nc4ccccc4nc3n21` (stereo not shown) [compound 13], the “Hoechst 33342 nuclear staining” value (KB; 24h, conc 0.3 (µM)) was 0, the “Hoechst 33342 nuclear staining” value (KB; 24h, conc 1 (µM)) was 0 and the “Hoechst 33342 nuclear staining” value (KB; 24h, conc 3 (µM)) was 0. The “Hoechst 33342 nuclear staining” value (KB; 24h, conc 10 (µM)) was 2 (score 2 relating to strong activity comprising more than 50% of the cells), the “Hoechst 33342 nuclear staining” value (KB; 48h, conc 0.3 (µM)) was 0 and the “Hoechst 33342 nuclear staining” value (KB; 48h, conc 1 (µM)) was 0. The “Hoechst 33342 nuclear staining” value (KB; 48h, conc 3 (µM)) was 2 (score 2 relating to strong activity comprising more than 50% of the cells), the “Hoechst 33342 nuclear staining” value (KB; 48h, conc 10 (µM)) was 2 (score 2 relating to strong activity comprising more than 50% of the cells) and the “Hoechst 33342 nuclear staining” value (K562; K562, 24h, conc 0.3 (µM)) was 0. The “Hoechst 33342 nuclear staining” value (K562; K562, 24h, conc 1 (µM)) was 0, the “Hoechst 33342 nuclear staining” value (K562; K562, 24h, conc 3 (µM)) was 0 and the “Hoechst 33342 nuclear staining” value (K562; K562, 24h, conc 10 (µM)) was 2 (score 2 relating to strong activity comprising more than 50% of the cells). The “Hoechst 33342 nuclear staining” value (K562; K562, 48h, conc 0.3 (µM)) was 0, the “Hoechst 33342 nuclear staining” value (K562; K562, 48h, conc 1 (µM)) was 0 and the “Hoechst 33342 nuclear staining” value (K562; K562, 48h, conc 3 (µM)) was 1 (1 relating to weak activity comprising less than 50% of the cells). For the same compound, the “Hoechst 33342 nuclear staining” value (K562; K562, 48h, conc 10 (µM)) was 2 (score 2 relating to strong activity comprising more than 50% of the cells), the “G2M (increase of the cell population arrested in G2M phase)” value (Jurkat) was 0 and the “subG1” value (Jurkat) was 0. For the same compound, the “G2M (increase of the cell population arrested in G2M phase)” value (HeLa) was 0 and the “subG1” value (HeLa) was 0.
